Assay results reported in PMC2556205 (Journal of medicinal chemistry, 2008).

How the values were obtained:
[1] = molecular target: T1, purified recombinant rat FAAH (Rattus norvegicus, UniProt P97612); test: FAAH inhibition assay, 14C-oleamide hydrolysis, Dixon plot; type: biochemical; conditions: for FAAH inhibition (in words): pH 9 assay conditions
T1 sequence (P97612 30-579 limits assumed): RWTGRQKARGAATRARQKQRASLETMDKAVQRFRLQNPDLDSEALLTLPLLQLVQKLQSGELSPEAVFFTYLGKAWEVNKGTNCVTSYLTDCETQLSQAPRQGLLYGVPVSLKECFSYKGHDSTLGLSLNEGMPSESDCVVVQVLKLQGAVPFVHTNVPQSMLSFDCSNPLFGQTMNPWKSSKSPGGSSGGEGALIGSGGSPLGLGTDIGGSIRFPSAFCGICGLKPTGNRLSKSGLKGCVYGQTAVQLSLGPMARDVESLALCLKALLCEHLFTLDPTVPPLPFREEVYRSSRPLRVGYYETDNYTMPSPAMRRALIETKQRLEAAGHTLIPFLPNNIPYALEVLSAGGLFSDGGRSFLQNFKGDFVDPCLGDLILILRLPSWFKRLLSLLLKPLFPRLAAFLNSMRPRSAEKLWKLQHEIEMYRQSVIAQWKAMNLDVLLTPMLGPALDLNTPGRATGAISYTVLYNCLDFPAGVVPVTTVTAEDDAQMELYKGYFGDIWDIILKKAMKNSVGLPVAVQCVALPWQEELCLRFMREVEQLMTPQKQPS

FAAH knockout mice = conditions: cited from earlier work
P450 3A4 = conditions: cited from earlier work
P450 2D6 = conditions: cited from earlier work
[2] = system: spinal nerve ligation (SNL) model of neuropathic pain; conditions: 10–20 mg/kg, i.p.; cited from earlier work
[3] = system: human ether-a-go-go related gene (hERG); conditions: cited from earlier work
P450 2C9 = conditions: cited from earlier work
hot plate assay = conditions: 10–20 mg/kg, i.p.; cited from earlier work
tail flick assay = conditions: 10–20 mg/kg, i.p.; cited from earlier work
[4] = system: mild thermal injury (MTI) model of peripheral pain; conditions: 10–20 mg/kg, i.p.; cited from earlier work
[5] = system: cannabinoid (CB1) receptor; conditions: cited from earlier work
[6] = system: vanilloid (TRP) receptors; conditions: cited from earlier work
[7] = system: formalin test of noxious chemical pain; conditions: 1st and 2nd phase; 10–20 mg/kg, i.p.; cited from earlier work
[8] = system: endogenous anandamide levels; conditions: cited from earlier work
[9] = molecular target: T1, purified recombinant rat FAAH; conditions: cited from earlier work
[10] = Cerep assay profiling; cited from earlier work
[11] = system: cannabinoid (CB2) receptor; conditions: cited from earlier work

## O=C(CCCCCCc1ccccc1)c1cnc(-c2ccccn2)o1 [compound 6]
[1]; oxazole isomer, location of the oxazole nitrogen atom switched, compared with 2
  loss of FAAH inhibition: > 4000 fold

## Cn1nnnc1C(=O)CCCCCCc1ccccc1 [19b]
[1]
  FAAH inhibition (in words): displayed FAAH inhibition at levels consistent with this series

## Cn1nnc(C(=O)CCCCCCc2ccccc2)n1 [19a]
[1]
  FAAH inhibition (in words): displayed FAAH inhibition at levels consistent with this series

## O=C(CCCCCCc1ccccc1)c1ncc(-c2ccccn2)o1 [compound 2]
FAAH knockout mice
  analgesia in FAAH knockout mice: ineffective at promoting analgesia
P450 3A4
  inhibition of P450 3A4: does not significantly inhibit
P450 2D6
  inhibition of P450 2D6: does not significantly inhibit
[2]
  analgesic activity, SNL model: analgesic activity
[3]
  inhibition of hERG: does not significantly inhibit
P450 2C9
  inhibition of P450 2C9: does not significantly inhibit
Hot plate assay
  analgesic activity, hot plate assay: analgesic activity
Tail flick assay
  analgesic activity, tail flick assay: analgesic activity
[4]
  analgesic activity, MTI model: analgesic activity
[5]
  CB1 receptor binding: does not bind
[6]
  vanilloid (TRP) receptor binding: does not bind
[7]
  analgesic activity, formalin test: analgesic activity
[8]
  endogenous anandamide levels: increases endogenous anandamide levels
[9]
  mode of inhibition (Lineweaver–Burk analysis): reversible, competitive inhibition
[10]
  offsite target activity: lack significant offsite target activity
[11]
  CB2 receptor binding: does not bind
